Measurements: US20210299076A1, “AMINO ACID FORMULATIONS AND USES THEREOF” (University of Florida Research Foundation, Incorporated, priority 2012, published 2021)
Values joined by “and” are separate entries in the source; they are usually repeats but may differ in a detail not shown here. Identical values can stand only once. “Also recorded” adds a separate entry of the source.

Columns and labels:
[1] = system: ileum (HCO3− secretion); assay: pH stat HCO3− secretion in ileum; format: cell-based, mouse; conditions: for Effect on lumen Cl−-independent HCO3− secretion stimulated by glucose: 100 μM on lumen side, 6 mM glucose
Description: pH stat studies are performed to determine whether HCO3^− secretion contributes to the unaccounted portion of the Isc. At least two modes of HCO3^− secretion in the mouse small intestine have been identified by the present inventors: 1) Cl^−-dependent, electroneutral Cl^−—HCO3^− exchange, and 2) Cl^−-independent, electrogenic HCO3^− secretion. […] Specifically, HCO3^−-free, poorly buffered solution is added to both sides of the tissues mounted in an Ussing chamber and both sides of the tissues are bubbled with 100% O2. Minimal HCO3^− secretion (0.1±0.01 mEq.h^−1.cm^−2, n=12) is recorded under such conditions. Subsequent addition of HCO3^−-containing buffered solution to the basolateral side and bubbling with 95% O2 and 5% CO2 on that side results in significant HCO3^− secretion 3.8±0.2 mEq.h^−1.cm^−2 (n=9). To determine whether lumen Cl^−-independent HCO3^− secretion plays a role in HCO3^− secretion (in the absence of lumen glucose), pH stat experiments are performed in the absence of lumen Cl^−. In the absence of lumen Cl^−, minimal HCO3^− secretion is recorded (0.4±0.1 pEq.h^−1.cm^−2) (FIG. 5A). […] The HCO3^− secretion in the presence of glucose could be due to a lumen Cl^−-dependent, electroneutral Cl—HCO3^− exchange or a lumen Cl^−-independent anion channel-mediated HCO3^− secretion. To assess the mechanism of glucose-stimulated HCO3^− secretion, glucose is added to the mucosal side.

[2] = molecular target: T1, SGLT1 (Mus musculus, UniProt Q8C3K6); assay: Saturation kinetics of Na+-coupled glucose / 3-OMG transport (Isc, Ussing chamber, ileal sheets); format: cell-based
T1 construct: from tissue; host or cells: ileal mucosa of NIH Swiss mice
T1 sequence (Q8C3K6 1-665): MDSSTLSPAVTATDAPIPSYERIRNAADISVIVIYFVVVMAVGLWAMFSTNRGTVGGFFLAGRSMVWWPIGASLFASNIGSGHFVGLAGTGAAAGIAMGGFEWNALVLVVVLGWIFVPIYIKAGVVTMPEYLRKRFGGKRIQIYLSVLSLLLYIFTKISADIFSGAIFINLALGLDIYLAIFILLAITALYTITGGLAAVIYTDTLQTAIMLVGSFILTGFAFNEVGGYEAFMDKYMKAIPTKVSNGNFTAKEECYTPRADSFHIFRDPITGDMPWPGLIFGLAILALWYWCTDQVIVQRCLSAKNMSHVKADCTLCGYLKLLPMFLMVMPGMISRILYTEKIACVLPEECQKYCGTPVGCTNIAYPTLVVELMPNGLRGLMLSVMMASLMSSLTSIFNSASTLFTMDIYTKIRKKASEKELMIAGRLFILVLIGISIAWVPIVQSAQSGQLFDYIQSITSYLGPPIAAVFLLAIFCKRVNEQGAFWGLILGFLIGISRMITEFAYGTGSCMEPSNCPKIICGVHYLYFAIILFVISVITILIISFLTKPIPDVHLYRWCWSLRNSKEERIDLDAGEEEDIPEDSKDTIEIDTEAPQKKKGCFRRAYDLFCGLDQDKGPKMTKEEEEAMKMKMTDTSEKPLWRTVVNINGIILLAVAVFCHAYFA
From the text: (§1) Normally fed, 8-week-old, male NIH Swiss mice are sacrificed by CO2 inhalation, followed by cervical dislocation. The small intestine is gently removed, and the segment is washed and flushed in ice-cold Ringer's solution. Then the mucosa is separated from the serosa and the muscular layers by striping through the submucosal plane as previously described (Zhang et al. (2007) J Physiol 581(3):1221-1233). Following exsanguinations, ileal mucosa is obtained from a 10 cm segment close to the caecum. All experiments are approved by the University of Florida Institutional Animal Care and Use Committee.
(§2) Ion transport studies are performed on ileal sheets. Tissues are then mounted in between the two halves of an Ussing type-Lucite chamber with 0.3 cm^−2 exposed surface areas (P2304, Physiologic Instruments, San Diego, Calif., USA). […] The basal short-circuit current (Isc) and the corresponding conductance (G) are recorded using a computer controlled voltage/current clamp device (VCC MC-8, Physiologic Instruments).
(§3) Tissues paired with similar conductance and current are treated with or without 100 μM H-89 (Santa Cruz Biotechnology, Inc, Santa Cruz, Calif.), an irreversible protein kinase A (PKA) inhibitor. […] Saturation kinetic constant is calculated for the corresponding Km and Vmax for treated and untreated tissues. […]

[3] = system: intracellular cAMP in ileal epithelial cells; assay: Colorimetric intracellular cAMP measurement in ileal villus and crypt cells; format: cell-based, mouse; conditions: villus cells
Description: Freshly isolated mucosal scrapings of ileal epithelial cells are washed three times in Ringer's solution containing 1.2 mM Ca^2+ at 37° C. […] Cells are treated with 0.1 M HCl to stop endogenous phosphodiesterase activity. The lysates are then used for cAMP assay using cAMP direct immunoassay kit (Calbiochem, USA). The quantitative assay of cAMP uses a polyclonal antibody to cAMP that binds to cAMP in samples in a competitive manner. After a simultaneous incubation at room temperature, the excess reagents are washed away and substrates are added. After a short incubation time, the reaction is stopped and the yellow color generated is read at 405 nm. The intensity of the color is inversely proportional to the concentration of cAMP in standards and samples. cAMP levels are standardized to protein levels from respective fractions and expressed in pmol (mg protein)^−1. Forskolin treated cells are used as a positive control. Glucose and forskolin treated cells are incubated for 45 minutes. All the assays are performed in triplicate and repeated until n=4 different mice.

[4] = system: Caco-2 cells; assay: Confocal Ca2+ fluorescence microscopy (Fluo-8) in Caco-2 cells; format: cell-based
Description: Caco-2 cells are obtained from ATTC and cultured in Dulbecoo's modified Eagle's medium supplemented with 10% fetal calf serum (FCS) and 1% nonessential amino acids at 37° C. and 5% CO2. Caco-2 cells are passaged for 20-25 times and are seeded (2×10^5 cells/dish) on 5 cm petri-dishes and grown until 80% confluence, when the FCS concentration is changed to 5%. Cells are grown for another 10 days before they are used for functional studies.
Caco2 cells grown in 25 mm round coverslips are mounted on the bath chamber RC-21BR attached to series 20 stage adapter (Warner Instruments, CT USA). […] Fluorescence is recorded by argon lasers with excitation at 488 nm and emission at 515 nm. […] Changes are recorded and fluorescence is measured for various cells. […]
To determine the role of intracellular Ca^2+ in glucose-stimulated increase in Isc, intracellular Ca^2+ level is measured in the presence of different concentrations of glucose and 3-OMG, respectively, and in the presence of BAPTA-AM (1,2-bis(o-aminophenoxy)ethane-N,N,N′,N′-tetraacetic acid)—an intracellular calcium-specific chelator. The Ca^2+ responses to glucose and 3-OMG in cultured Caco2 cells loaded with the Ca^2+ indicator fluo 8 are monitored by laser scanning confocal microscopy. […] The mean peak amplitude of calcium fluorescence (F/Fo) with 0.6 mM glucose is calculated to be 1.32±0.1 (n=10).

[5] = system: mouse ileum; assay: Bio-electric measurement of short-circuit current (Isc) in ileal sheets, Ussing chamber; format: cell-based; conditions: for Effect on glucose- or 3-OMG-stimulated increase in Isc: tissues pre-treated with H-89
From the text: as §1
Ion transport studies are performed on ileal sheets. Tissues are then mounted in between the two halves of an Ussing type-Lucite chamber with 0.3 cm^−2 exposed surface areas (P2304, Physiologic Instruments, San Diego, Calif., USA). Regular Ringer's solution (115 mM NaCl, 25 mM NaHCO3, 4.8 mM K2HPO4, 2.4 mM KH2PO4, 1.2 mM MgCl2 and 1.2 mM CaCl2) bubbled with 95% O2: 5% CO2 is used bilaterally as bathing solution for the tissues and the temperature is maintained constant at 37° C. The chambers are balanced to eliminate osmotic and hydrostatic forces. Resistance due to fluid is also compensated. The tissues are allowed to stabilize. The basal short-circuit current (Isc) and the corresponding conductance (G) are recorded using a computer controlled voltage/current clamp device (VCC MC-8, Physiologic Instruments).
Tissues paired with similar conductance and current are treated with or without 100 μM H-89 (Santa Cruz Biotechnology, Inc, Santa Cruz, Calif.), an irreversible protein kinase A (PKA) inhibitor. The tissues are incubated with H-89 for 30 minutes. Increasing concentrations of glucose (0.015-8 mM) are added every 5 minutes and the peak current is noted. Saturation kinetic constant is calculated for the corresponding Km and Vmax for treated and untreated tissues.
To investigate whether inhibition of glucose transport abolishes PKA-sensitive current, experiments are conducted using phlorizin (Santa Cruz Biotechnology, Inc, Santa Cruz, Calif., USA), a reversible competitive inhibitor of SGLT1. Specifically, ileal tissues mounted in Ussing chamber are treated with 100 μM phlorizin on the lumen side and glucose saturation kinetic studies are conducted.

[6] = substrate: CO[C@@H]([C@H](O)[C@H](O)CO)[C@@H](O)C=O; assay: Saturation kinetics of Na+-coupled glucose / 3-OMG transport (Isc, Ussing chamber, ileal sheets); format: cell-based, mouse; conditions: 37.0 °C
From the text: as §1, §2, §3

[7] = FIG. 5B, lumen Cl− present, 100 μM DIDS, 10 μM NPPB

Molecule: O=S(=O)(O)c1cc(N=C=S)ccc1C=Cc1ccc(N=C=S)cc1S(=O)(=O)O [DIDS, 4,4′-diisothiocyano-2,2′-stilbenedisulfonic acid]
- Effect on HCO3− secretion in the absence of glucose [1, 7]: abolishes HCO3^− secretion

Molecule: CO[C@@H]([C@H](O)[C@H](O)CO)[C@@H](O)C=O [Formulation 3-OMG, 3-O-methylglucose]
- Vmax ([2]; Table 1, no PKA inhibitor, n = 8 tissues): 2.7 ± 0.1
- Vmax ([2]; Table 1, with H-89, n = 8 tissues): 1.4 ± 0.1
- Intracellular cAMP level compared to 6 mM glucose ([3]; 3-OMG 6 mM, P<0.01): significantly higher
- Intracellular cAMP level ([3]; 3-OMG 0.6 and 6 mM, 45 minutes): significant increase
- HCO3− secretion ([1]; 6 mM 3-OMG, absence of lumen and bath HCO3−): 0.1±0.03 μEq.h^−1.cm^−2
- Mean peak amplitude of calcium fluorescence (F/Fo) ([4]; 0.6 mM in bath medium, n=10): 1.2±0.1 and 1.2±0.2
- Mean peak amplitude of calcium fluorescence (F/Fo) ([4]; 6 mM in bathing medium): 1.5±0.1

Molecule: O=S(=O)(NCCNC/C=C/c1ccc(Br)cc1)c1cccc2cnccc12 [Formulation H-89]
- Effect on glucose- or 3-OMG-stimulated increase in Isc [5]: significant decrease in Isc
- Effect on glucose- or 3-OMG-stimulated increase in Isc ([5]; listed as H89): significant reduction

Molecule: COc1ccc(Cl)cc1C(=O)NCCc1ccc(S(=O)(=O)NC(=O)NC2CCCCC2)cc1 [Glibenclamide, glibenclamide]
- Effect on lumen Cl−-independent HCO3− secretion stimulated by glucose [1]: inhibits

Molecule: O=C(O)c1cc([N+](=O)[O-])ccc1NCCCc1ccccc1 [NPPB, 5-nitro-2-(3-phenylpropylamino)-benzoic acid]
- Effect on lumen Cl−-independent HCO3− secretion stimulated by glucose [1]: inhibits
- Effect on HCO3− secretion in the absence of glucose [1, 7]: does not have any inhibitory effect
- Effect on HCO3− secretion in the presence of 6 mM glucose [1, 7]: inhibits

Molecule: N=C(N)NC(=O)c1nc(Cl)c(N)nc1N [amiloride]
- Effect on Isc ([5]; 10 μM on mucosal side of small intestine): no effect

Molecule: O=C(CCc1ccc(O)cc1)c1c(O)cc(O)cc1O[C@@H]1O[C@H](CO)[C@@H](O)[C@H](O)[C@H]1O [phlorizin]
- Effect on glucose- and/or 3-OMG-stimulated increase in Isc ([5]; 100 μM phlorizin on lumen side): no response; also recorded: completely abolished

B1: SGLT1 (Mus musculus) (protein)
chain: MDSSTLSPAVTATDAPIPSYERIRNAADISVIVIYFVVVMAVGLWAMFSTNRGTVGGFFLAGRSMVWWPIGASLFASNIGSGHFVGLAGTGAAAGIAMGGFEWNALVLVVVLGWIFVPIYIKAGVVTMPEYLRKRFGGKRIQIYLSVLSLLLYIFTKISADIFSGAIFINLALGLDIYLAIFILLAITALYTITGGLAAVIYTDTLQTAIMLVGSFILTGFAFNEVGGYEAFMDKYMKAIPTKVSNGNFTAKEECYTPRADSFHIFRDPITGDMPWPGLIFGLAILALWYWCTDQVIVQRCLSAKNMSHVKADCTLCGYLKLLPMFLMVMPGMISRILYTEKIACVLPEECQKYCGTPVGCTNIAYPTLVVELMPNGLRGLMLSVMMASLMSSLTSIFNSASTLFTMDIYTKIRKKASEKELMIAGRLFILVLIGISIAWVPIVQSAQSGQLFDYIQSITSYLGPPIAAVFLLAIFCKRVNEQGAFWGLILGFLIGISRMITEFAYGTGSCMEPSNCPKIICGVHYLYFAIILFVISVITILIISFLTKPIPDVHLYRWCWSLRNSKEERIDLDAGEEEDIPEDSKDTIEIDTEAPQKKKGCFRRAYDLFCGLDQDKGPKMTKEEEEAMKMKMTDTSEKPLWRTVVNINGIILLAVAVFCHAYFA
notes: Ion transport studies are performed on ileal sheets; from tissue; host or cells: ileal mucosa of NIH Swiss mice
- Km ([6]; other: Table 1, no PKA inhibitor, n = 8 tissues): 200 µM
- Km ([6]; other: increasing lumen concentrations up to 8 mM, 140 mM Na+, no inhibitor): 220 ± 70 µM
